Laboratory results as given in paper PMC5592720 (Planta medica, 2013).
Values joined by “and” are separate entries in the source; they are usually repeats but may differ in a detail not shown here. Identical values can stand only once. Like-named read-outs stand apart in the source and are kept apart here.

Columns and labels:
in vitro = in vitro ADME, human; settings: human, Caco-2
Caco-2 cell monolayers = experiment: in vitro; format: in vitro ADME, human; settings: for % Transport Absorptive direction (A–B) / % Transport Secretory direction (A–B): Caco-2 monolayers, 1% HPβCD, 2 h; for Intestinal permeability across Caco-2 monolayers (rating): relative to atenolol and propranolol
CYP2D6 [1] = target: T1, CYP2D6 (Homo sapiens, UniProt P10635)
CYP2D6 [2] = target: T1, CYP2D6; experiment: biochemical
[3] = Phase II metabolic stability in S9 fractions; format: in vitro ADME, human
[4] = Phase I metabolic stability in human liver microsomes; format: in vitro ADME; settings: pooled human liver microsomes; for Stability in HLM (Phase I): up to 180 min, words
CYP2C19 [5] = target: T2, CYP2C19 (Homo sapiens, UniProt P33261); experiment: Inhibition of cytochrome P450 2C19; settings: words; table prints 2C19
CYP3A4 = CYP3A4 (Homo sapiens, UniProt P08684); experiment: Inhibition of cytochrome P450 3A4
[6] = Stability in simulated intestinal fluid; format: in vitro ADME; settings: for % RD of dioscin depletion / % RD of diosgenin depletion: RD = relative difference
[7] = rat, cited from earlier work
CYP1A2 [8] = target: T3, CYP1A2 (Homo sapiens, UniProt P05177); experiment: Inhibition of cytochrome P450 1A2
T3 sequence (P05177 1-516): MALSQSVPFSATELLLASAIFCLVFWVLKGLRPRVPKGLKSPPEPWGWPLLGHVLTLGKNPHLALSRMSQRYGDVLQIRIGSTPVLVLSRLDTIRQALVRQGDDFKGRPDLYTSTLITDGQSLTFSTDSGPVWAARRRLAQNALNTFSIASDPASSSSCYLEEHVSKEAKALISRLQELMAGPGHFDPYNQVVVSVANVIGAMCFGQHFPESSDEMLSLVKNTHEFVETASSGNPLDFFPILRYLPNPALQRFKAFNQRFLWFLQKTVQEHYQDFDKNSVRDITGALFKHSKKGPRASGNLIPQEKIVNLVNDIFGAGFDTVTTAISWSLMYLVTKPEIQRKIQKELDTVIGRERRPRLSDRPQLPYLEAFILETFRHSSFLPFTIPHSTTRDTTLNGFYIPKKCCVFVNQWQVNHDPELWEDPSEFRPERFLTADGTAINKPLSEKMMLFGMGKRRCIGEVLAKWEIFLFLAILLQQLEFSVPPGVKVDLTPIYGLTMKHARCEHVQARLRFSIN

[9] = Stability in simulated gastric fluid; format: in vitro ADME; settings: for % RD of dioscin depletion / % RD of diosgenin depletion: RD = relative difference; for Degradation (depletion) in SGF: SGF pH 1.2, end of incubation (b9 prints 3-hour incubation)
CYP1A2 [10] = target: T3, CYP1A2
CYP2C19 [11] = target: T2, CYP2C19
[12] = cited from earlier work
[13] = IC50 3A4, cDNA baculovirus-expressed enzyme, fluorescence substrate
[14] = IC50 CYP3A4, text, catalytic activity of CYP3A4

T1 sequence (P10635 whole entry): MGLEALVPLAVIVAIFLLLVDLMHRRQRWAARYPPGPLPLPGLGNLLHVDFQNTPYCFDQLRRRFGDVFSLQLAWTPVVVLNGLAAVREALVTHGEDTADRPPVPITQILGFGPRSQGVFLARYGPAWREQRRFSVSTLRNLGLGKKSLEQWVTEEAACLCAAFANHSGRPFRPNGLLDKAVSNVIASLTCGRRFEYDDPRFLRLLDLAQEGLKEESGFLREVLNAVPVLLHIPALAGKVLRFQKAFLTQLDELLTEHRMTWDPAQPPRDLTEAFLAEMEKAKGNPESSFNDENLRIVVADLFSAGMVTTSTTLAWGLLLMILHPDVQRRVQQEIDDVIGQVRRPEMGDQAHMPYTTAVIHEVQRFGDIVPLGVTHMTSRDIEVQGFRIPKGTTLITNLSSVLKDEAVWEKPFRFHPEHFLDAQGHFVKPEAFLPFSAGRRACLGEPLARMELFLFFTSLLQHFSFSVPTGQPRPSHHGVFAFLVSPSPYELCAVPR
Chain of CYP3A4 (P08684 whole entry): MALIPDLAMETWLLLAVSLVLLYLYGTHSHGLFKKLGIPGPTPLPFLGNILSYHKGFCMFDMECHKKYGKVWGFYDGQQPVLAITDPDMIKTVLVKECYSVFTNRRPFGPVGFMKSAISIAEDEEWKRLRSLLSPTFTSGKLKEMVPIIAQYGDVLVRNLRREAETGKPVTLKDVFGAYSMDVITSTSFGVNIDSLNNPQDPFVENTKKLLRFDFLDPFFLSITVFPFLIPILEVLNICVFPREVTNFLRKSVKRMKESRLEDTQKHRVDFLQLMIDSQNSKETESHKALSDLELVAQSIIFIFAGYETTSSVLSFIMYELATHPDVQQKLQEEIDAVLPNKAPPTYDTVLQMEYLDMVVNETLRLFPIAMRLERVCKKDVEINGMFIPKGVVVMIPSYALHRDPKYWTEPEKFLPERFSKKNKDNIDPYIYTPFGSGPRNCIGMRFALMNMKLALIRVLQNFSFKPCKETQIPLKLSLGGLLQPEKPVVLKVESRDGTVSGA
T2 sequence (P33261 whole entry): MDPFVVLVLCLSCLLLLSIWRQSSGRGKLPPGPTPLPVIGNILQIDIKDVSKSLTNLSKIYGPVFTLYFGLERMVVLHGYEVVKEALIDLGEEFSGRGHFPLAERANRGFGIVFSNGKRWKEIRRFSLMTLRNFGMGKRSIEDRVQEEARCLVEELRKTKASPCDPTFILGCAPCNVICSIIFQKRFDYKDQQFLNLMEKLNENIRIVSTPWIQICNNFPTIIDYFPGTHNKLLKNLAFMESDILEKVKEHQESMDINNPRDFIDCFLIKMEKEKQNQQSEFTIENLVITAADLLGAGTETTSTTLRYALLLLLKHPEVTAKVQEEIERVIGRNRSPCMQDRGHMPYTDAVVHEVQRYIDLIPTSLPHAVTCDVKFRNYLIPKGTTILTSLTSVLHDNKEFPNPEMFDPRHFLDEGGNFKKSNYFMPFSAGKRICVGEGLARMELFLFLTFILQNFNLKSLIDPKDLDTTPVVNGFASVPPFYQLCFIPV

Molecule: C[C@@H]1CC[C@@]2(OC1)O[C@H]1C[C@H]3[C@@H]4CC=C5C[C@@H](O[C@@H]6O[C@H](CO)[C@@H](O[C@@H]7O[C@@H](C)[C@H](O)[C@@H](O)[C@H]7O)[C@H](O)[C@H]6O[C@@H]6O[C@@H](C)[C@H](O)[C@@H](O)[C@H]6O)CC[C@]5(C)[C@H]4CC[C@]3(C)[C@H]1[C@@H]2C [Dioscin, dioscin]
- Papp A→B at 2 h (in vitro): 15 ± 1 ×10⁻⁶ cm/s
- Papp B→A at 2 h (in vitro): 20 ± 3 ×10⁻⁶ cm/s
- efflux ratio at 120 min (in vitro): 1.3
- Efflux across Caco-2 monolayer (Caco-2 cell monolayers; Caco-2, words): no significant efflux
- % Transport Absorptive direction (A–B) (Caco-2 cell monolayers): 7.5% and 7.5 ± 0.8%
- % Transport Secretory direction (A–B) (Caco-2 cell monolayers): 11% and 11 ± 1%
- Intestinal permeability across Caco-2 monolayers (rating) (Caco-2 cell monolayers): moderate
- Effect on CYP 2D6 (other CYP enzymes) (CYP2D6 [1]; words): not affected
- IC50 (CYP2D6 [2]): > 50 µM
- Compound detected after incubation in S9 fractions ([3]; S9 fractions, dioscin 50 μM): more than 50%
- Stability in S9 fraction (Phase II) ([3]; S9 fractions, words): relatively stable
- Compound detected after incubation in HLM ([4]; dioscin 50 μM): more than 50%
- Stability in HLM (Phase I) [4]: relatively stable
- Effect on CYP 2C9 as printed in text (other CYP enzymes) (CYP2C19 [5]): not affected
- IC50 (CYP3A4; [13]): 33 ± 4 µM
- IC50 (CYP3A4; [14]): 33.4 µM
- % RD of dioscin depletion ([6]; SIF pH 6.8, 60 min): 4.3%
- % RD of dioscin depletion ([6]; SIF pH 6.8, 120 min): 9.9%
- % RD of dioscin depletion ([6]; SIF pH 6.8, 180 min): 11.6%
- Amount of dioscin in SIF ([6]; SIF pH 6.8, incubation 0 min): 41.1 ± 0.8 µg/mL
- Amount of dioscin in SIF ([6]; SIF pH 6.8, incubation 60 min): 39.3 ± 1.0 µg/mL
- Amount of dioscin in SIF ([6]; SIF pH 6.8, incubation 120 min): 37.0 ± 1.3 µg/mL
- Amount of dioscin in SIF ([6]; SIF pH 6.8, incubation 180 min): 36.3 ± 1.1 µg/mL
- Half-life after oral administration ([7]; oral): 1540 min
- Oral bioavailability [7]: low oral bioavailability
- IC50 (CYP1A2 [8]): > 50 µM
- Effect on CYP 1A2 (other CYP enzymes) (CYP1A2 [8]; words): not affected
- % RD of dioscin depletion ([9]; SGF pH 1.2, 30 min): 16.7%
- % RD of dioscin depletion ([9]; SGF pH 1.2, 60 min): 23.6%
- % RD of dioscin depletion ([9]; SGF pH 1.2, 120 min): 28.3%
- Degradation (depletion) in SGF [9]: 28.3%
- Amount of dioscin in SGF ([9]; SGF pH 1.2, incubation 0 min): 45.0 ± 4.0 µg/mL
- Amount of dioscin in SGF ([9]; SGF pH 1.2, incubation 30 min): 37.5 ± 1.2 µg/mL
- Amount of dioscin in SGF ([9]; SGF pH 1.2, incubation 60 min): 34.4 ± 1.1 µg/mL
- Amount of dioscin in SGF ([9]; SGF pH 1.2, incubation 120 min): 32.3 ± 1.0 µg/mL
- Dioscin still detected after incubation in SGF ([9]; after 3-hour incubation in SGF as printed): 71.7%

Molecule: C[C@@H]1CC[C@@]2(OC1)O[C@H]1C[C@H]3[C@@H]4CC=C5C[C@@H](O)CC[C@]5(C)[C@H]4CC[C@]3(C)[C@H]1[C@@H]2C [Diosgenin, diosgenin]
- Papp A→B at 2 h (in vitro): 9.6 ± 0.7 ×10⁻⁶ cm/s
- Papp B→A at 2 h (in vitro): 48 ± 4 ×10⁻⁶ cm/s
- efflux ratio at 120 min (in vitro): 5
- % Transport Absorptive direction (A–B) (Caco-2 cell monolayers): 3.8% and 3.8 ± 0.8%
- % Transport Secretory direction (A–B) (Caco-2 cell monolayers): 21% and 21 ± 1%
- Intestinal permeability across Caco-2 monolayers (rating) (Caco-2 cell monolayers): moderate
- Diosgenin levels in apical or basolateral side (Caco-2 cell monolayers; transport buffer (HBSS) without HPβCD, after 2-hour incubation): no diosgenin levels were detected
- Effect on CYP 2D6 (other CYP enzymes) (CYP2D6 [1]): not affected
- IC50 (CYP2D6 [2]): > 50 µM
- Intrinsic clearance in S9 fraction ([3]; S9 fraction, diosgenin 100 μM): 7 mL/min/kg
- half-life at 100 μM ([3]; human, s9): 11.3 min
- Stability in HLM (Phase I) [4]: stable
- Effect on CYP 1A2 (other CYP enzymes) (CYP1A2 [10]): not affected
- Effect on CYP 2C9 as printed in text (other CYP enzymes) (CYP2C19 [11]): not affected
- IC50 (CYP3A4; [13]): 17 ± 4 µM
- IC50 (CYP3A4; [14]): 21.7 µM
- % RD of diosgenin depletion ([6]; SIF pH 6.8, 60 min): 1.28%
- % RD of diosgenin depletion ([6]; SIF pH 6.8, 120 min): 4.21%
- % RD of diosgenin depletion ([6]; SIF pH 6.8, 180 min): 4.80%
- Degradation (disappearance) in SIF ([6]; SIF pH 6.8, after 3 hours of incubation): < 10% and 4.8%
- Amount of diosgenin in SIF ([6]; SIF pH 6.8, incubation 0 min): 57.0 ± 1.0 µg/mL
- Amount of diosgenin in SIF ([6]; SIF pH 6.8, incubation 60 min): 56.2 ± 1.9 µg/mL
- Amount of diosgenin in SIF ([6]; SIF pH 6.8, incubation 120 min): 54.6 ± 2.0 µg/mL
- Amount of diosgenin in SIF ([6]; SIF pH 6.8, incubation 180 min): 54.2 ± 3.2 µg/mL
- IC50 (CYP1A2 [8]): > 50 µM
- Aqueous solubility [12]: poor aqueous solubility
- % RD of diosgenin depletion ([9]; SGF pH 1.2, 30 min): 3.62%
- % RD of diosgenin depletion ([9]; SGF pH 1.2, 60 min): 8.31%
- % RD of diosgenin depletion ([9]; SGF pH 1.2, 120 min): 8.59%
- Degradation (depletion) in SGF [9]: < 10% and 8.5%
- Amount of diosgenin in SGF ([9]; SGF pH 1.2, incubation 0 min): 52.4 ± 0.9 µg/mL
- Amount of diosgenin in SGF ([9]; SGF pH 1.2, incubation 30 min): 50.5 ± 0.9 µg/mL
- Amount of diosgenin in SGF ([9]; SGF pH 1.2, incubation 60 min): 48.0 ± 1.9 µg/mL
- Amount of diosgenin in SGF ([9]; SGF pH 1.2, incubation 120 min): 47.9 ± 1.1 µg/mL

Molecule: lucifer yellow [Ly, reference compound]
- Papp of Ly (monolayer integrity marker) (Caco-2 cell monolayers; Caco-2): 2.0 ± 0.5 × 10^−6 cm/s
